# Assay results as given in PubChem BioAssay (NCI).
#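 Step 1: Grow cells in 96-well plates. Step 2: Expose to compound for 48 hours at 5 concentrations. Step 3: Interpolate endpoints linearly; if unreached, use highest concentration. TGI: total growth inhibition.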
# System: COLO 205 colon
# Assay: NCI anticancer screen, dose series, 48 h
row,Compound,TGI
1,C[C@@H]1C[C@H]2[C@@H]3CCC4=CC(=O)C=C[C@]4(C)[C@@]3(Cl)[C@@H](Cl)C[C@]2(C)[C@@]1(O)C(=O)COP(=O)(O)O,> 100 µM
2,O=Cc1cc2c(cc1-c1c(C=O)ccc3c1OCO3)OCO2,> 10 µM
3,COC(=O)Cc1cc(O)c(C/C=C(\C)CC/C=C(\C)C(O)C(=O)C=C(C)C)cc1O (stereo not drawn),57.7 µM
4,COc1ccc(/C=C(/C(=O)c2ccc(Cl)cc2)N2C=CC=CC2=C(C#N)C#N)cc1OC,3.32 µM
5,Nc1nc(Cl)c(N)c(NC23CC4CC(CC(C4)C2)C3)n1,3.13 µM

# System: DU-145 prostate
# Assay: NCI anticancer screen, dose series, 48 h
row,Compound,TGI
1,CCOC(=O)C1(Cc2ccc3c(c2)CCC3)Cc2cc3c(cc2C1)CCC3,> 100 µM
2,C=CCNC1=C2C[C@@H](C)C[C@@H](OC)[C@H](OC(=O)CCCCN)[C@H](C)/C=C(\C)[C@@H](OC(N)=O)[C@H](OC)/C=C\C=C(/C)C(=O)NC(=CC1=O)C2=O,18.5 µM
3,C[C@@H]1C[C@H]2[C@@H]3CCC4=CC(=O)C=C[C@]4(C)[C@@]3(Cl)[C@@H](Cl)C[C@]2(C)[C@@]1(O)C(=O)COP(=O)(O)O,> 100 µM
4,O=Cc1cc2c(cc1-c1c(C=O)ccc3c1OCO3)OCO2,> 10 µM
5,COC(=O)Cc1cc(O)c(C/C=C(\C)CC/C=C(\C)C(O)C(=O)C=C(C)C)cc1O (stereo not drawn),> 100 µM
6,COc1ccc(/C=C(/C(=O)c2ccc(Cl)cc2)N2C=CC=CC2=C(C#N)C#N)cc1OC,28.5 µM
7,Nc1nc(Cl)c(N)c(NC23CC4CC(CC(C4)C2)C3)n1,7.05 µM

# System: EKVX NSCLC
# Assay: NCI anticancer screen, dose series, 48 h
row,Compound,TGI
1,CCOC(=O)C1(Cc2ccc3c(c2)CCC3)Cc2cc3c(cc2C1)CCC3,> 100 µM
2,C=CCNC1=C2C[C@@H](C)C[C@@H](OC)[C@H](OC(=O)CCCCN)[C@H](C)/C=C(\C)[C@@H](OC(N)=O)[C@H](OC)/C=C\C=C(/C)C(=O)NC(=CC1=O)C2=O,26.9 µM
3,C[C@@H]1C[C@H]2[C@@H]3CCC4=CC(=O)C=C[C@]4(C)[C@@]3(Cl)[C@@H](Cl)C[C@]2(C)[C@@]1(O)C(=O)COP(=O)(O)O,> 100 µM
4,COC(=O)Cc1cc(O)c(C/C=C(\C)CC/C=C(\C)C(O)C(=O)C=C(C)C)cc1O (stereo not drawn),66.8 µM
5,COc1ccc(/C=C(/C(=O)c2ccc(Cl)cc2)N2C=CC=CC2=C(C#N)C#N)cc1OC,10.6 µM
6,Nc1nc(Cl)c(N)c(NC23CC4CC(CC(C4)C2)C3)n1,5.36 µM

# System: HCC-2998 colon
# Assay: NCI anticancer screen, dose series, 48 h
row,Compound,TGI
1,CCOC(=O)C1(Cc2ccc3c(c2)CCC3)Cc2cc3c(cc2C1)CCC3,64.4 µM
2,C=CCNC1=C2C[C@@H](C)C[C@@H](OC)[C@H](OC(=O)CCCCN)[C@H](C)/C=C(\C)[C@@H](OC(N)=O)[C@H](OC)/C=C\C=C(/C)C(=O)NC(=CC1=O)C2=O,13.6 µM
3,C[C@@H]1C[C@H]2[C@@H]3CCC4=CC(=O)C=C[C@]4(C)[C@@]3(Cl)[C@@H](Cl)C[C@]2(C)[C@@]1(O)C(=O)COP(=O)(O)O,> 100 µM
4,O=Cc1cc2c(cc1-c1c(C=O)ccc3c1OCO3)OCO2,> 10 µM
5,COc1ccc(/C=C(/C(=O)c2ccc(Cl)cc2)N2C=CC=CC2=C(C#N)C#N)cc1OC,4.2 µM
6,Nc1nc(Cl)c(N)c(NC23CC4CC(CC(C4)C2)C3)n1,7.89 µM

# System: HCT-116 colon
# Assay: NCI anticancer screen, dose series, 48 h
row,Compound,TGI
1,CCOC(=O)C1(Cc2ccc3c(c2)CCC3)Cc2cc3c(cc2C1)CCC3,> 100 µM
2,C=CCNC1=C2C[C@@H](C)C[C@@H](OC)[C@H](OC(=O)CCCCN)[C@H](C)/C=C(\C)[C@@H](OC(N)=O)[C@H](OC)/C=C\C=C(/C)C(=O)NC(=CC1=O)C2=O,28 µM
3,C[C@@H]1C[C@H]2[C@@H]3CCC4=CC(=O)C=C[C@]4(C)[C@@]3(Cl)[C@@H](Cl)C[C@]2(C)[C@@]1(O)C(=O)COP(=O)(O)O,> 100 µM
4,O=Cc1cc2c(cc1-c1c(C=O)ccc3c1OCO3)OCO2,> 10 µM
5,COC(=O)Cc1cc(O)c(C/C=C(\C)CC/C=C(\C)C(O)C(=O)C=C(C)C)cc1O (stereo not drawn),31.1 µM
6,COc1ccc(/C=C(/C(=O)c2ccc(Cl)cc2)N2C=CC=CC2=C(C#N)C#N)cc1OC,5.41 µM
7,Nc1nc(Cl)c(N)c(NC23CC4CC(CC(C4)C2)C3)n1,2.92 µM

# System: HCT-15 colon
# Assay: NCI anticancer screen, dose series, 48 h
row,Compound,TGI
1,CCOC(=O)C1(Cc2ccc3c(c2)CCC3)Cc2cc3c(cc2C1)CCC3,> 100 µM
2,C=CCNC1=C2C[C@@H](C)C[C@@H](OC)[C@H](OC(=O)CCCCN)[C@H](C)/C=C(\C)[C@@H](OC(N)=O)[C@H](OC)/C=C\C=C(/C)C(=O)NC(=CC1=O)C2=O,34.1 µM
3,C[C@@H]1C[C@H]2[C@@H]3CCC4=CC(=O)C=C[C@]4(C)[C@@]3(Cl)[C@@H](Cl)C[C@]2(C)[C@@]1(O)C(=O)COP(=O)(O)O,> 100 µM
4,O=Cc1cc2c(cc1-c1c(C=O)ccc3c1OCO3)OCO2,> 10 µM
5,COc1ccc(/C=C(/C(=O)c2ccc(Cl)cc2)N2C=CC=CC2=C(C#N)C#N)cc1OC,6.19 µM
6,Nc1nc(Cl)c(N)c(NC23CC4CC(CC(C4)C2)C3)n1,13.3 µM

# System: HL-60(TB) leukemia
# Assay: NCI anticancer screen, dose series, 48 h
row,Compound,TGI
1,CCOC(=O)C1(Cc2ccc3c(c2)CCC3)Cc2cc3c(cc2C1)CCC3,> 100 µM
2,C=CCNC1=C2C[C@@H](C)C[C@@H](OC)[C@H](OC(=O)CCCCN)[C@H](C)/C=C(\C)[C@@H](OC(N)=O)[C@H](OC)/C=C\C=C(/C)C(=O)NC(=CC1=O)C2=O,30.3 µM
3,O=Cc1cc2c(cc1-c1c(C=O)ccc3c1OCO3)OCO2,> 10 µM
4,COC(=O)Cc1cc(O)c(C/C=C(\C)CC/C=C(\C)C(O)C(=O)C=C(C)C)cc1O (stereo not drawn),12 µM
5,COc1ccc(/C=C(/C(=O)c2ccc(Cl)cc2)N2C=CC=CC2=C(C#N)C#N)cc1OC,7.79 µM

# System: HOP-62 NSCLC
# Assay: NCI anticancer screen, dose series, 48 h
row,Compound,TGI
1,CCOC(=O)C1(Cc2ccc3c(c2)CCC3)Cc2cc3c(cc2C1)CCC3,> 100 µM
2,C=CCNC1=C2C[C@@H](C)C[C@@H](OC)[C@H](OC(=O)CCCCN)[C@H](C)/C=C(\C)[C@@H](OC(N)=O)[C@H](OC)/C=C\C=C(/C)C(=O)NC(=CC1=O)C2=O,18.5 µM
3,C[C@@H]1C[C@H]2[C@@H]3CCC4=CC(=O)C=C[C@]4(C)[C@@]3(Cl)[C@@H](Cl)C[C@]2(C)[C@@]1(O)C(=O)COP(=O)(O)O,> 100 µM
4,O=Cc1cc2c(cc1-c1c(C=O)ccc3c1OCO3)OCO2,> 10 µM
5,COC(=O)Cc1cc(O)c(C/C=C(\C)CC/C=C(\C)C(O)C(=O)C=C(C)C)cc1O (stereo not drawn),41.6 µM
6,COc1ccc(/C=C(/C(=O)c2ccc(Cl)cc2)N2C=CC=CC2=C(C#N)C#N)cc1OC,51.1 µM
